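Test compounds were applied to cells in 96-well plates for 48 hours at 5 doses. GI50 = concentration required for 50% inhibition of growth.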 Activity calls are given as the source filed them. Rule as the data show it: active = GI50 up to about 1.1 µM and inactive = higher.
What was measured:
Test in all cases: NCI tumour cell line growth inhibition, 48 h
[1] = tested on: 786-0
[2] = tested on: CCRF-CEM
[3] = tested on: COLO 205
[4] = tested on: DU-145
[5] = tested on: HCC 2998
[6] = tested on: Hs-578T
[7] = tested on: KM12
[8] = tested on: MDA-MB-231
[9] = tested on: MDA-MB-435
[10] = tested on: NCI-H226
[11] = tested on: NCI/ADR-RES
[12] = tested on: OVCAR-3
[13] = tested on: OVCAR-5
[14] = tested on: OVCAR-8
[15] = tested on: SF-539
[16] = tested on: SK-MEL-5
[17] = tested on: SK-OV-3
[18] = tested on: SNB-75
[19] = tested on: UACC-257
[20] = tested on: SK-MEL-2

SMILES | GI50 [1] | GI50 [2] | GI50 [3] | GI50 [4] | GI50 [5] | GI50 [6] | GI50 [7] | GI50 [8] | GI50 [9] | GI50 [10] | GI50 [11] | GI50 [12] | GI50 [13] | GI50 [14] | GI50 [15] | GI50 [16] | GI50 [17] | GI50 [18] | GI50 [19] | GI50 [20]
CCn1c2ccccc2c2cc(NC(=O)c3c(C)nc(O)nc3NCCNCCO)ccc21 | > 100 µM (inactive) | > 100 µM (inactive) | > 100 µM (inactive) | > 100 µM (inactive) | > 100 µM (inactive) | > 100 µM (inactive) | > 100 µM (inactive) | > 100 µM (inactive) | > 100 µM (inactive) | > 100 µM (inactive) | > 100 µM (inactive) | > 100 µM (inactive) | > 100 µM (inactive) | > 100 µM (inactive) | > 100 µM (inactive) | > 100 µM (inactive) | > 100 µM (inactive) | > 100 µM (inactive) | > 100 µM (inactive) | 
Nc1ncnc2oc(C3OC(COC(=O)c4ccccc4)C(OC(=O)c4ccccc4)C3OC(=O)c3ccccc3)nc12 (stereo not given) | > 100 µM (inactive) | > 100 µM (inactive) | > 100 µM (inactive) | > 100 µM (inactive) | > 100 µM (inactive) | 49.2 µM (inactive) | > 100 µM (inactive) | > 100 µM (inactive) | > 100 µM (inactive) | > 100 µM (inactive) | > 100 µM (inactive) | > 100 µM (inactive) | > 100 µM (inactive) | > 100 µM (inactive) | > 100 µM (inactive) | > 100 µM (inactive) | > 100 µM (inactive) | 29.2 µM (inactive) | > 100 µM (inactive) | 
CN1c2ccccc2S(=O)(=O)n2c(CCc3ccccc3)nnc21 | 54.1 µM (inactive) | > 100 µM (inactive) | > 100 µM (inactive) | > 100 µM (inactive) | > 100 µM (inactive) | 79.4 µM (inactive) | > 100 µM (inactive) | > 100 µM (inactive) | > 100 µM (inactive) | > 100 µM (inactive) | > 100 µM (inactive) | > 100 µM (inactive) | > 100 µM (inactive) | > 100 µM (inactive) | > 100 µM (inactive) | > 100 µM (inactive) | > 100 µM (inactive) |  | > 100 µM (inactive) | > 100 µM (inactive)
CCC(=O)Oc1ccc2c(c1)c(=O)c1c(NCCCN(C)C)ccc3nnn2c31 | 0.361 µM (active) | 0.127 µM (active) | 1.99 µM (inactive) | 1.04 µM (active) | 1.25 µM (inactive) | 5.56 µM (inactive) | 0.796 µM (active) | 3.44 µM (inactive) | 2.79 µM (inactive) | 2.31 µM (inactive) | 3.31 µM (inactive) | 7 µM (inactive) | 8.28 µM (inactive) | 0.403 µM (active) | 1.71 µM (inactive) | 1.9 µM (inactive) | 4.36 µM (inactive) |  | 10.6 µM (inactive) | 13 µM (inactive)
O=c1c2sc3nc(NCCN4CCCCC4)ncc3c2ncn1-c1ccccc1 | 80.7 µM (inactive) | 44.7 µM (inactive) | 41.3 µM (inactive) | > 100 µM (inactive) | > 100 µM (inactive) | 36.4 µM (inactive) | > 100 µM (inactive) | > 100 µM (inactive) | 72.6 µM (inactive) | 93.8 µM (inactive) | 62.5 µM (inactive) | > 100 µM (inactive) | > 100 µM (inactive) | 45.5 µM (inactive) |  | 19.2 µM (inactive) | > 100 µM (inactive) | 45.3 µM (inactive) | 31.3 µM (inactive) | 34.2 µM (inactive)
